# From PubChem BioAssay (NCI)
#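 Step 1: Grow cells in 96-well plates. Step 2: Expose to compound for 48 hours at 5 concentrations. Step 3: Interpolate endpoints linearly; if unreached, use highest concentration. The concentration for 50% growth inhibition is given as GI50. TGI marks complete inhibition of growth.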
# Assays:
# Assay in all cases: NCI tumour cell line growth inhibition, 48 h
# [1] = system: HOP-62 NSCLC
# [2] = system: HCC-2998 colon
# [3] = system: SF-539 CNS
# [4] = system: OVCAR-4 ovarian
# [5] = system: SNB-75 CNS
# [6] = system: SK-OV-3 ovarian
# [7] = system: MDA-MB-231 breast
# [8] = system: SNB-19 CNS
# [9] = system: NCI-H522 lung
# [10] = system: NCI-H460 lung
# [11] = system: MALME-3M melanoma
# [12] = system: LOX IMVI melanoma
# [13] = system: MOLT-4 leukemia
# [14] = system: COLO 205 colon
# [15] = system: SK-MEL-2 melanoma
# [16] = system: NCI-H23 lung
# [17] = system: HS 578T breast
# [18] = system: SF-295 CNS
# [19] = system: M14 melanoma
# [20] = system: A549 NSCLC
# [21] = system: BT-549 breast
# [22] = system: UACC-257 melanoma
# [23] = system: OVCAR-8 ovarian
# [24] = system: K-562 leukemia
# [25] = system: TK-10 renal
# [26] = system: SW-620 colon
# [27] = system: MDA-MB-435
# [28] = system: PC-3 prostate
# [29] = system: HT29 colon
# [30] = system: SK-MEL-28 melanoma
# [31] = system: RPMI-8226 leukemia
# [32] = system: HCT-15 colon
# [33] = system: IGROV1 ovarian
# [34] = system: SF-268 CNS
# [35] = system: T-47D breast
# [36] = system: A498 renal
# [37] = system: ACHN renal
# [38] = system: RXF 393 renal
# [39] = system: NCI/ADR-RES ovarian
# [40] = system: DU-145 prostate
# [41] = system: NCI-H226 lung
# [42] = system: CCRF-CEM leukemia
# [43] = system: MCF7 breast
# [44] = system: CAKI-1 renal
# [45] = system: KM12 colon
# [46] = system: HL-60(TB) leukemia
# [47] = system: SR leukemia
# [48] = system: SK-MEL-5 melanoma
# [49] = system: OVCAR-5 ovarian
# [50] = system: HCT-116 colon
# [51] = system: U251 CNS
# [52] = system: OVCAR-3 ovarian
# [53] = system: SN12C renal
# [54] = system: UACC-62 melanoma
# [55] = system: UO-31 renal
# [56] = system: 786-0 renal
# [57] = system: EKVX NSCLC
# [58] = system: HOP-92 NSCLC
compound,measurement,setting,value
CCN(c1ccc(CO)c(Cl)c1)C(C)c1ccc(F)cc1 (centres undefined),GI50,[1],16.2 µM
same,TGI,[1],30.2 µM
same,GI50,[2],16.6 µM
same,TGI,[2],32.8 µM
same,GI50,[3],16.5 µM
same,TGI,[3],30.8 µM
same,GI50,[4],7.97 µM
same,TGI,[4],20.7 µM
same,GI50,[5],13 µM
same,TGI,[5],26.8 µM
same,GI50,[6],15.7 µM
same,TGI,[6],29.2 µM
same,GI50,[7],15.3 µM
same,TGI,[7],30.1 µM
same,GI50,[8],16 µM
same,TGI,[8],30.5 µM
same,GI50,[9],12.7 µM
same,TGI,[9],26.7 µM
same,GI50,[10],7.88 µM
same,TGI,[10],23.7 µM
same,GI50,[11],16.7 µM
same,TGI,[11],31.8 µM
same,GI50,[12],17.1 µM
same,TGI,[12],32.9 µM
same,GI50,[13],19.3 µM
same,TGI,[13],40 µM
same,GI50,[14],18.9 µM
same,TGI,[14],35.5 µM
same,GI50,[15],13.2 µM
same,TGI,[15],28 µM
same,GI50,[16],14 µM
same,TGI,[16],30.5 µM
same,GI50,[17],16.9 µM
same,TGI,[17],40.2 µM
same,GI50,[18],11.5 µM
same,TGI,[18],24.3 µM
same,GI50,[19],17.6 µM
same,TGI,[19],33.8 µM
same,GI50,[20],13.1 µM
same,TGI,[20],27.9 µM
same,GI50,[21],15.5 µM
same,TGI,[21],29.6 µM
same,GI50,[22],2.8 µM
same,TGI,[22],12.8 µM
same,GI50,[23],14.1 µM
same,TGI,[23],30.2 µM
same,GI50,[24],9.86 µM
same,TGI,[24],24.7 µM
same,GI50,[25],1.12 µM
same,TGI,[25],6.11 µM
same,GI50,[26],14.1 µM
same,TGI,[26],30.2 µM
same,GI50,[27],17.3 µM
same,TGI,[27],32.5 µM
same,GI50,[28],13.1 µM
same,TGI,[28],26.7 µM
same,GI50,[29],15.5 µM
same,TGI,[29],30 µM
same,GI50,[30],16.1 µM
same,TGI,[30],30.6 µM
same,GI50,[31],11.8 µM
same,TGI,[31],39.2 µM
same,GI50,[32],13.7 µM
same,TGI,[32],28.9 µM
same,GI50,[33],0.891 µM
same,TGI,[33],4 µM
same,GI50,[34],17 µM
same,TGI,[34],31.9 µM
same,GI50,[35],4.22 µM
same,TGI,[35],18.2 µM
same,GI50,[36],0.117 µM
same,TGI,[36],0.843 µM
same,GI50,[37],14.2 µM
same,TGI,[37],27.7 µM
same,GI50,[38],11 µM
same,TGI,[38],26 µM
same,GI50,[39],14.5 µM
same,TGI,[39],31.2 µM
same,GI50,[40],16.9 µM
same,TGI,[40],31.2 µM
same,GI50,[41],0.49 µM
same,TGI,[41],2.31 µM
same,GI50,[42],18 µM
same,TGI,[42],41.2 µM
same,GI50,[43],12.5 µM
same,TGI,[43],27.1 µM
same,GI50,[44],8.46 µM
same,TGI,[44],21.7 µM
same,GI50,[45],17 µM
same,TGI,[45],32.5 µM
same,GI50,[46],17.9 µM
same,TGI,[46],38.1 µM
same,GI50,[47],19.8 µM
same,TGI,[47],43.1 µM
same,GI50,[48],14.5 µM
same,TGI,[48],28 µM
same,GI50,[49],2.97 µM
same,TGI,[49],11.9 µM
same,GI50,[50],4.22 µM
same,TGI,[50],17.4 µM
same,GI50,[51],9 µM
same,TGI,[51],22 µM
same,GI50,[52],13.7 µM
same,TGI,[52],27.3 µM
same,GI50,[53],14.2 µM
same,TGI,[53],28.5 µM
same,GI50,[54],3.79 µM
same,TGI,[54],16.9 µM
same,GI50,[55],15.3 µM
same,TGI,[55],29.1 µM
same,GI50,[56],16.4 µM
same,TGI,[56],30.4 µM
NS(=O)(=O)c1ccc(N2Cc3cc(Cl)ccc3OC3=C2C(=O)N(CC2CCCCC2)C3=O)cc1,GI50,[1],1.73 µM
same,TGI,[1],3.39 µM
same,GI50,[2],1.84 µM
same,TGI,[2],3.51 µM
same,GI50,[3],1.47 µM
same,TGI,[3],2.82 µM
same,GI50,[4],0.897 µM
same,TGI,[4],2.46 µM
same,GI50,[57],1.47 µM
same,TGI,[57],2.91 µM
same,GI50,[5],0.784 µM
same,TGI,[5],2.13 µM
same,GI50,[6],2.07 µM
same,TGI,[6],4.26 µM
same,GI50,[7],1.11 µM
same,TGI,[7],2.6 µM
same,GI50,[8],1.6 µM
same,TGI,[8],3.44 µM
same,GI50,[9],0.273 µM
same,TGI,[9],0.676 µM
same,GI50,[10],1.72 µM
same,TGI,[10],4.04 µM
same,GI50,[11],1.3 µM
same,TGI,[11],2.83 µM
same,GI50,[12],1.01 µM
same,TGI,[12],2.32 µM
same,GI50,[13],0.195 µM
same,TGI,[13],0.531 µM
same,GI50,[14],0.716 µM
same,TGI,[14],2.28 µM
same,GI50,[15],1.86 µM
same,TGI,[15],3.65 µM
same,GI50,[16],1.64 µM
same,TGI,[16],3.61 µM
same,GI50,[17],2.01 µM
same,TGI,[17],6.88 µM
same,GI50,[18],1.81 µM
same,TGI,[18],4.03 µM
same,GI50,[19],1.25 µM
same,TGI,[19],2.95 µM
same,GI50,[20],2.13 µM
same,TGI,[20],3.99 µM
same,GI50,[21],0.546 µM
same,TGI,[21],1.97 µM
same,GI50,[22],1.54 µM
same,TGI,[22],3 µM
same,GI50,[24],0.27 µM
same,TGI,[24],0.736 µM
same,GI50,[25],1.22 µM
same,TGI,[25],2.48 µM
same,GI50,[26],0.202 µM
same,TGI,[26],0.445 µM
same,GI50,[27],0.903 µM
same,TGI,[27],2.23 µM
same,GI50,[28],0.519 µM
same,TGI,[28],2.09 µM
same,GI50,[29],0.392 µM
same,TGI,[29],1.1 µM
same,GI50,[30],1.16 µM
same,TGI,[30],2.57 µM
same,GI50,[31],0.227 µM
same,TGI,[31],0.575 µM
same,GI50,[32],0.344 µM
same,TGI,[32],1.45 µM
same,GI50,[33],1.34 µM
same,TGI,[33],2.83 µM
same,GI50,[34],1.22 µM
same,TGI,[34],2.69 µM
same,GI50,[35],0.365 µM
same,TGI,[35],1.86 µM
same,GI50,[36],1.26 µM
same,TGI,[36],2.85 µM
same,GI50,[37],0.286 µM
same,TGI,[37],0.883 µM
same,GI50,[38],0.495 µM
same,TGI,[38],1.77 µM
same,GI50,[39],1.74 µM
same,TGI,[39],5.05 µM
same,GI50,[40],1.06 µM
same,TGI,[40],2.25 µM
same,GI50,[41],1.54 µM
same,TGI,[41],3.6 µM
same,GI50,[43],0.364 µM
same,TGI,[43],1.9 µM
same,GI50,[44],1.24 µM
same,TGI,[44],2.55 µM
same,GI50,[45],1.83 µM
same,TGI,[45],4.08 µM
same,GI50,[46],0.283 µM
same,TGI,[46],0.828 µM
same,GI50,[47],0.284 µM
same,TGI,[47],0.839 µM
same,GI50,[48],1.77 µM
same,TGI,[48],3.25 µM
same,GI50,[49],1.76 µM
same,TGI,[49],3.54 µM
same,GI50,[50],0.208 µM
same,TGI,[50],0.44 µM
same,GI50,[51],1.3 µM
same,TGI,[51],2.65 µM
same,GI50,[52],0.207 µM
same,TGI,[52],0.429 µM
same,GI50,[53],1.01 µM
same,TGI,[53],2.57 µM
same,GI50,[54],0.377 µM
same,TGI,[54],1.61 µM
same,GI50,[55],1.1 µM
same,TGI,[55],2.32 µM
same,GI50,[56],0.207 µM
same,TGI,[56],0.482 µM
same,GI50,[58],1.31 µM
same,TGI,[58],2.67 µM
